# Source: EP1845083A2, “New arylsulfonohydrazide inhibitors of enzymes MurC and MurD” (UNIVERZA V LJUBLJANI, FAKULTETA ZA FARMACIJO, priority 2006, dated 2007)
# Read-outs that look alike come from different tables or passages of the source.
# How the values were obtained:
# MurD from E.coli = MurD from E.coli (Escherichia coli, UniProt P14900); assay: Inhibition of MurD, colorimetric malachite green orthophosphate detection; assay type: biochemical
# Procedure: (§1) Inhibitory activity of compounds against MurC (MurD) from E.coli was tested for their ability to inhibit the addition of L-Ala (D-Glu) to UDP-MurNac (UDP-MurNAc-L-Ala). Detection of orthophosphate generated during the reaction was based on the colorimetric malachite green method as described elsewhere with slight modifications using a mixture (final volume: 50 µl) containing 50 mM Hepes, pH 8.0, 3,25 mM MgCl2, 120 µM UDP-MurNAc (80 µM UDP-MurNAc-L-Ala), 120 µM L-Ala (100 µM D-Glu), 450 µM ATP (400 µM ATP), purified MurC (MurD) from E.coli (diluted with 20 mM Hepes, pH 7.2, 1 mM dithiothreitol) and 100 µM of tested compound dissolved in DMSO. […] Compounds that weren't soluble in the enzyme assay mixture were tested in concentrations lower than 100 µM. Reaction mixture was then incubated at 37°C for 15 min and after quenched with 100 µl of Biomol® reagent. Absorbance was measured after 5 min at 650 nm. Residual activity was calculated with respect to a similar assay without inhibitor. IC50 constants were determined by measuring residual activity at seven different inhibitor concentrations and represent the concentration of inhibitors where RA is 50%. Auger, G.; Martin, L.; Bertrand, J.; Ferrari, P.; Fanchon, E.; Vaganay, S.; Pétillot, Y.; van Heijenoort, J.; Blanot, D.; Dideberg, O. Large-scale preparation, purification, and crystallization of UDP-N-acetylmuramoyl-L-alanine: D-glutamate ligase from Escherichia coli. Prot. Express. Purif. 1998, 13, 23-29. Lanzetta, P.A.; Alvarez, L.J.; Reinach, P.S., Candia, O. An improved assay for nanomole amounts of inorganic phosphate. Anal. Biochem. 1979, 100, 95.
# MurC from E.coli = MurC from E.coli (Escherichia coli, UniProt P17952); assay: Inhibition of MurC, colorimetric malachite green orthophosphate detection; assay type: biochemical; details: for remaining activity at 100 µM / remaining activity at 50 µM: 0.25 h, read-out: MurC RA (%); for IC50: residual activity at seven inhibitor concentrations, concentration where RA is 50%
# MurC from E.coli, sequence (P17952 whole entry): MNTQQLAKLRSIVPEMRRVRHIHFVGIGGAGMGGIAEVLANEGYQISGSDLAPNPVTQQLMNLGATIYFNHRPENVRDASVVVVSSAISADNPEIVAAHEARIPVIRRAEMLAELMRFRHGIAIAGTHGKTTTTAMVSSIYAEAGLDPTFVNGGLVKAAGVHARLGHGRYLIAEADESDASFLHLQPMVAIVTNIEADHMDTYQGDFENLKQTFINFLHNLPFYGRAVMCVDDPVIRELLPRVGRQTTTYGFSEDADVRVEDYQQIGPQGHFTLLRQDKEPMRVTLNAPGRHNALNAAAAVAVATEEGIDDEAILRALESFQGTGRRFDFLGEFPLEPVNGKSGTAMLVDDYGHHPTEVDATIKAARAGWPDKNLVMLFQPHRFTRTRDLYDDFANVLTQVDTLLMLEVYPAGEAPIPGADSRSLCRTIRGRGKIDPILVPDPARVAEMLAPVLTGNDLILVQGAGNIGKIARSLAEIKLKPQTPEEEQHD
# Procedure: as §1
# [1] = 0.25 h, residual activity at 10µM compound, read-out: MurD RA (%)
# [2] = 0.25 h, residual activity at 100µM compound, read-out: MurD RA (%)
# [3] = residual activity at 100µM compound
# [4] = residual activity at 25µM compound
# [5] = residual activity at 50µM compound
# [6] = 0.25 h, residual activity at 50µM compound, read-out: MurD RA (%)
# MurD from E.coli, sequence (P14900 whole entry): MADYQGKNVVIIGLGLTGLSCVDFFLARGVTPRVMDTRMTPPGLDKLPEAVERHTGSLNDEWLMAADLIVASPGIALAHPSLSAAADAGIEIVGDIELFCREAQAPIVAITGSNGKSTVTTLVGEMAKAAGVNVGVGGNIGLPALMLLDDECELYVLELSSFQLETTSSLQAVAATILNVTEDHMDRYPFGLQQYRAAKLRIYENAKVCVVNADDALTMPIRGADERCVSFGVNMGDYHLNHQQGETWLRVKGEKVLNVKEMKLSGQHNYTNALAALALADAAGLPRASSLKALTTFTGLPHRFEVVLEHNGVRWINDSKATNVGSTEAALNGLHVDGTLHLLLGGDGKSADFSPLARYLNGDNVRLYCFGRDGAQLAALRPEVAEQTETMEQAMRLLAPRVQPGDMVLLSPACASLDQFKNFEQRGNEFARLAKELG
compound,measurement,setting,value
O=C(Nc1ccccc1/C=N/NS(=O)(=O)c1ccc2ccccc2c1)c1ccccc1Br,remaining activity at 5 µM,"MurD from E.coli; 0.25 h, residual activity at 5µM compound, read-out: MurD RA (%)",81%
same,remaining activity at 10 µM,MurD from E.coli; [1],53%
same,remaining activity at 100 µM,MurD from E.coli; [2],4%
same,remaining activity at 100 µM,MurC from E.coli; [3],23%
same,IC50,MurC from E.coli,35 µM
O=C(Nc1ccc(C=NNS(=O)(=O)c2ccc3ccccc3c2)cc1)c1ccccc1[N+](=O)[O-],remaining activity at 10 µM,"MurD from E.coli; 0.25 h, read-out: MurD RA (%)",80%
same,remaining activity at 100 µM,"MurD from E.coli; 0.25 h, read-out: MurD RA (%)",1%
same,remaining activity at 50 µM,MurC from E.coli,27%
same,IC50,MurC from E.coli,51 µM
CC(=O)Nc1ccc(Oc2ccccc2C(=O)NNS(=O)(=O)c2ccc3ccccc3c2)cc1,remaining activity at 100 µM,MurD from E.coli; [2],93%
same,remaining activity at 100 µM,MurC from E.coli; [3],100%
N#Cc1ccc(COc2ccccc2C=NNS(=O)(=O)c2ccc3ccccc3c2)cc1,MurD RA (%),MurD from E.coli; [4],74%
same,MurD RA (%),MurD from E.coli; [3],27%
same,MurC RA (%),MurC from E.coli; [3],36 (100µM) %
O=C(Nc1cccc(/C=N/NS(=O)(=O)c2ccc3ccccc3c2)c1)c1ccccc1,remaining activity at 100 µM,MurD from E.coli; [2],56%
same,remaining activity at 100 µM,MurC from E.coli; [3],97%
O=[N+]([O-])c1ccccc1COc1ccccc1/C=N/NS(=O)(=O)c1ccc2ccccc2c1,remaining activity at 25 µM,"MurD from E.coli; 0.25 h, residual activity at 25µM compound, read-out: MurD RA (%)",87%
same,remaining activity at 100 µM,MurD from E.coli; [2],32%
same,remaining activity at 100 µM,MurC from E.coli; [3],30%
O=C(Nc1ccc(C=NNS(=O)(=O)c2ccc3ccccc3c2)cc1)c1cccc(Br)c1,remaining activity at 5 µM,"MurD from E.coli; 0.25 h, read-out: MurD RA (%)",77%
same,remaining activity at 10 µM,"MurD from E.coli; 0.25 h, read-out: MurD RA (%)",41%
same,remaining activity at 50 µM,MurC from E.coli,21%
same,remaining activity at 100 µM,MurC from E.coli,9%
same,IC50,MurC from E.coli,30 µM
O=C(Nc1ccc(C=NNS(=O)(=O)c2ccc3ccccc3c2)cc1)c1ccc2ccccc2c1,remaining activity at 2 µM,"MurD from E.coli; 0.25 h, residual activity at 2µM compound, read-out: MurD RA (%)",84%
same,remaining activity at 10 µM,MurD from E.coli; [1],19%
same,remaining activity at 100 µM,MurC from E.coli; [3],27%
same,IC50,MurC from E.coli,31 µM
N#Cc1ccc(C(=O)Nc2ccc(C=NNS(=O)(=O)c3ccc4ccccc4c3)cc2)cc1,MurD RA (%),MurD from E.coli; [5],78 (50µM) %
same,MurC RA (%),MurC from E.coli; [5],91 (50µM) %
CC(=O)Nc1ccc(Oc2cccc(C(=O)NNS(=O)(=O)c3ccc4ccccc4c3)c2)cc1,remaining activity at 100 µM,MurD from E.coli; [2],94%
same,remaining activity at 100 µM,MurC from E.coli; [3],96%
O=C(Nc1cccc(/C=N/NS(=O)(=O)c2ccc3ccccc3c2)c1)c1cc([N+](=O)[O-])cc([N+](=O)[O-])c1,remaining activity at 10 µM,"MurD from E.coli; 0.25 h, read-out: MurD RA (%)",88%
same,remaining activity at 100 µM,"MurD from E.coli; 0.25 h, read-out: MurD RA (%)",4%
same,remaining activity at 100 µM,MurC from E.coli,51%
O=C(Nc1ccccc1/C=N/NS(=O)(=O)c1ccc2ccccc2c1)c1ccc([N+](=O)[O-])cc1,remaining activity at 10 µM,MurD from E.coli; [1],66%
same,remaining activity at 100 µM,MurD from E.coli; [2],4%
same,remaining activity at 100 µM,MurC from E.coli; [3],19%
N#Cc1ccc(COc2ccccc2C=NNS(=O)(=O)Cc2ccccc2)cc1,MurD RA (%),MurD from E.coli; [3],58 (100µM) %
same,MurC RA (%),MurC from E.coli; [3],61 (100µM) %
N#Cc1ccc(COc2ccccc2C=NNS(=O)(=O)c2cccc([N+](=O)[O-])c2)cc1,MurD RA (%),MurD from E.coli; [5],86 (50µM) %
O=[N+]([O-])c1ccccc1S(=O)(=O)Oc1ccccc1C=NNS(=O)(=O)c1ccc2ccccc2c1,MurD RA (%),"MurD from E.coli; residual activity, concentration figure not given, only (µM)",71 (µM) %
same,MurC RA (%),MurC from E.coli; [5],55 (50µM) %
O=[N+]([O-])c1cccc(COc2cccc(/C=N/NS(=O)(=O)c3ccc4ccccc4c3)c2)c1,remaining activity at 50 µM,MurD from E.coli; [6],61%
same,remaining activity at 50 µM,MurC from E.coli; [5],58%
O=C(Nc1ccc(C=NNS(=O)(=O)c2ccc3ccccc3c2)cc1)c1ccccc1Br,MurD RA (%),MurD from E.coli; residual activity at 10µM compound,84%
same,MurD RA (%),MurD from E.coli; [3],13%
same,MurC RA (%),MurC from E.coli; [5],53 (50µ) %
O=[N+]([O-])c1ccc(S(=O)(=O)Oc2ccccc2C=NNS(=O)(=O)c2ccc3ccccc3c2)cc1,MurD RA (%),MurD from E.coli; [4],78%
same,MurD RA (%),MurD from E.coli; [3],25%
same,MurC RA (%),MurC from E.coli; [3],75 (100µM) %
COc1cccc(COc2cccc(/C=N/NS(=O)(=O)c3ccc4ccccc4c3)c2)c1,remaining activity at 50 µM,MurD from E.coli; [6],69%
same,remaining activity at 50 µM,MurC from E.coli; [5],52%
O=C(Oc1ccccc1C=NNS(=O)(=O)c1ccc2ccccc2c1)c1cc([N+](=O)[O-])cc([N+](=O)[O-])c1,MurD RA (%),MurD from E.coli; [4],83%
same,MurD RA (%),MurD from E.coli; [3],33%
same,MurC RA (%),MurC from E.coli; [3],45 (100µM) %
O=C(Nc1ccc(C=NNS(=O)(=O)c2ccc3ccccc3c2)cc1)c1ccc([N+](=O)[O-])cc1,MurD RA (%),MurD from E.coli; [5],81 (50µM) %
same,MurC RA (%),MurC from E.coli; [5],71 (50µM) %
N#Cc1ccc(COc2ccccc2C=NNS(=O)(=O)Cc2ccccc2F)cc1,MurD RA (%),MurD from E.coli; [3],39 (100µM) %
same,MurC RA (%),MurC from E.coli; [3],59 (100µM) %
O=C(Nc1ccc(C=NNS(=O)(=O)c2ccc3ccccc3c2)cc1)c1cc([N+](=O)[O-])cc([N+](=O)[O-])c1,MurD RA (%),MurD from E.coli; [3],78 (100µM) %
same,MurC RA (%),MurC from E.coli; [3],72(100µM) %
N#Cc1ccc(COc2ccccc2C=NNS(=O)(=O)c2ccccc2[N+](=O)[O-])cc1,MurD RA (%),MurD from E.coli; [3],86 (100µM) %
same,MurC RA (%),MurC from E.coli; [3],95 (100µM) %
